“Also recorded” adds a separate entry of the source. Where two headings read alike, the source gives them in different places.
Key:
[1] = target: T1, CYP2C19 (Homo sapiens, UniProt P33261); assay: Fluorometric CYP inhibition assay, CEC dealkylation; type: in vitro ADME; conditions: recombinant CYP2C19, CEC 25 μM
Description: (§2) The test compounds were evaluated for their ability to inhibit the catalytic activity of human CYP1 enzymes by means of high throughput fluorometric detection assays conducted in 96-well microtitre plates as described elsewhere [16, 17]. 7-Ethoxyresorufin (ERes) was used as a substrate for detecting activity of CYP1B1 and 7-ethoxy-3-cyanocoumarin (CEC) was used as a substrate for both CYP1A1 and CYP1A2. Further, the substrates, 3-[2-(NN-diethyl-N-methylamino)ethyl]-7-methoxy-4methylcoumarin (AMMC), 7-benzyloxy-4-trifluoromethylcoumarin (BFC), and CEC were used as substrates for CYP2D6, CYP3A4, and CYP2C19, respectively. The reactions were monitored fluorometrically at 37°C, using a Varian Cary Eclipse fluorescence spectrophotometer.
(§3) IC50 and Ki values were determined by fitting the data in Sigma Plot (version 10.0) and enzyme kinetics module, using nonlinear regression analysis. The apparent Ki values were determined on the basis of visual inspection of Eadie-Hofstee and various statistics to evaluate goodness of fit, such as the size of the sum of squares of residuals, Akaike information criterion, and standard error (Enzyme kinetics module, version 1.3). The data listed represent the average values from three different determinations.
(§4) Data are expressed as mean percentage of control enzyme activity for three independent experiments.

[2] = target: T1, CYP2C19; conditions: read-out: published IC50 CYP2C19; published value for known inhibitor; cited from earlier work
[3] = test system: CCD18 Co cells; assay: MTS cell viability assay, normal colon cells; type: cell-based; conditions: normal colon cell line, 24 h exposure, MTS; for IC50: Homo sapiens, CCD-18Co
Description: (§1) Cell lines (CCD18 Co, HepG2 and MCF-7) were maintained in ATCC-formulated Eagle’s Minimum Essential Medium and HT29 was maintained in McCoy’s 5a Modified Medium supplemented with 10% fotal bovine serum (Atlas; Fort Collins, CO, USA), 10 mM HEPES solution, 100 mM L-glutamine penicillin streptomycin solution, 3 g/L glucose, and 1.5 g/L of sodium bicarbonate. Cells were maintained at 37°C with 5% CO2 in Corning 75 cm^2 culture flasks. Cells were exposed to a given isolate or known anticancer agent for 24 h. Following the appropriate treatments, cell viability was evaluated using an MTS assay according to the manufacturer’s instructions. All assays were performed at least three times and were monitored spectrophotometrically at 590 nm. Cell viability was recorded as percentage relative to vehicle solvent-treated control.

[4] = test system: HT29 cells; assay: MTS cell viability assay, colon cancer cells; type: cell-based; conditions: colon cancer cell line, 24 h exposure, MTS; for IC50: Homo sapiens, HT-29
Description: as §1

[5] = MTS cell viability assay, normal colon cells; type: cell-based; conditions: human, CCD18 Co normal colon cells; at 60 μM, CCD18 Co; read-out: impact on cell viability
Description: as §1

[6] = MTS cell viability assay, colon cancer cells; type: cell-based; conditions: human, HT29 colon cancer cells; at 60 μM, HT29; read-out: impact on cell viability
Description: as §1

[7] = MTS cell viability assay, liver cancer cells; type: cell-based; conditions: human, HepG2 liver cancer cells; at 60 μM, HepG2; read-out: impact on cell viability
Description: as §1

[8] = test system: HepG2 cells; assay: MTS cell viability assay, liver cancer cells; type: cell-based; conditions: liver cancer cells, 24 h exposure, MTS
Description: as §1

[9] = MTS cell viability assay, breast cancer cells; type: cell-based; conditions: human, MCF-7 breast cancer cells; at 60 μM, MCF-7; read-out: impact on cell viability
Description: (§5) Cells were maintained at 37°C with 5% CO2 in Corning 75 cm^2 culture flasks. Cells were exposed to a given isolate or known anticancer agent for 24 h. Following the appropriate treatments, cell viability was evaluated using an MTS assay according to the manufacturer’s instructions [14]. All assays were performed at least three times and were monitored spectrophotometrically at 590 nm [15]. Cell viability was recorded as percentage relative to vehicle solvent-treated control.

[10] = test system: MCF-7 cells; assay: MTS cell viability assay, breast cancer cells; type: cell-based; conditions: breast cancer cells, 24 h exposure, MTS
Description: as §5

[11] = target: T2, CYP1A1 (Homo sapiens, UniProt P04798); assay: Fluorometric CYP inhibition assay, CEC dealkylation; type: biochemical; conditions: for nature of inhibition of CYP1A1 activity: Eadie-Hofstee analysis, reversible; for Ki: apparent Ki, CEC dealkylation; for IC50: recombinant CYP1A1, CEC 0.5 μM
T2 sequence (P04798 1-512): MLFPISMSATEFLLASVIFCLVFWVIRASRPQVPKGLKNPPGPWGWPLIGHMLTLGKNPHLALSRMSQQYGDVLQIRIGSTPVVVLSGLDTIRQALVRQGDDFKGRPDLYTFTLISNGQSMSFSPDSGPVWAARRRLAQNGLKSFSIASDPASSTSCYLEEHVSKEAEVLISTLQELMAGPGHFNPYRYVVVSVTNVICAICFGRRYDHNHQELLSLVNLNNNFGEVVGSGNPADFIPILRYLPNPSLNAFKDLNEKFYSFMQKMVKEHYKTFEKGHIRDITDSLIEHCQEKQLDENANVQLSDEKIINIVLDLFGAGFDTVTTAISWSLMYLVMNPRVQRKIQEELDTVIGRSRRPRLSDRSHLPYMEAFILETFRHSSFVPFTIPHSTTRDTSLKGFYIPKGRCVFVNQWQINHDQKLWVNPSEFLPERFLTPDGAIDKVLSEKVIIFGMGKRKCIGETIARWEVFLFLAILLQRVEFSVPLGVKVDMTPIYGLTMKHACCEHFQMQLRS
Description: as §2, §3, §4

[12] = target: T3, CYP1A2 (Homo sapiens, UniProt P05177); assay: as above; type: biochemical; conditions: for IC50: recombinant CYP1A2, CEC 5 μM
T3 sequence (P05177 1-516): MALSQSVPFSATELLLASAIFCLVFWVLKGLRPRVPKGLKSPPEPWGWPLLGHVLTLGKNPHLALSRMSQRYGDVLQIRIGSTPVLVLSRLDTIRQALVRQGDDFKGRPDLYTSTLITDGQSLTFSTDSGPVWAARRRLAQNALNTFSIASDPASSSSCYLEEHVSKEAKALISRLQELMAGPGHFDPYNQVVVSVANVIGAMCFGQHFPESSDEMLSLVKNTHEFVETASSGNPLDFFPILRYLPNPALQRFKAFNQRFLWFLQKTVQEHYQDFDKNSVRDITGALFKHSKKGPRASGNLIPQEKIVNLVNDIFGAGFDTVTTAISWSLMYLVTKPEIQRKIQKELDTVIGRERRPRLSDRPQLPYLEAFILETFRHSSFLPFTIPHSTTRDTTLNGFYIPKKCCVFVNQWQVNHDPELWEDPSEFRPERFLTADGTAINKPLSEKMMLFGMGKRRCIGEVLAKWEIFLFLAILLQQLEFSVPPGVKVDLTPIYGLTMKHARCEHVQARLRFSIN
Description: as §2, §3, §4

[13] = target: T4, CYP1B1 (Homo sapiens, UniProt Q16678); assay: Fluorometric CYP inhibition assay, ERes dealkylation; type: biochemical; conditions: for nature of inhibition of CYP1B1 activity: Eadie-Hofstee analysis, reversible; for Ki: apparent Ki, ERes dealkylation
T4 sequence (Q16678 1-543): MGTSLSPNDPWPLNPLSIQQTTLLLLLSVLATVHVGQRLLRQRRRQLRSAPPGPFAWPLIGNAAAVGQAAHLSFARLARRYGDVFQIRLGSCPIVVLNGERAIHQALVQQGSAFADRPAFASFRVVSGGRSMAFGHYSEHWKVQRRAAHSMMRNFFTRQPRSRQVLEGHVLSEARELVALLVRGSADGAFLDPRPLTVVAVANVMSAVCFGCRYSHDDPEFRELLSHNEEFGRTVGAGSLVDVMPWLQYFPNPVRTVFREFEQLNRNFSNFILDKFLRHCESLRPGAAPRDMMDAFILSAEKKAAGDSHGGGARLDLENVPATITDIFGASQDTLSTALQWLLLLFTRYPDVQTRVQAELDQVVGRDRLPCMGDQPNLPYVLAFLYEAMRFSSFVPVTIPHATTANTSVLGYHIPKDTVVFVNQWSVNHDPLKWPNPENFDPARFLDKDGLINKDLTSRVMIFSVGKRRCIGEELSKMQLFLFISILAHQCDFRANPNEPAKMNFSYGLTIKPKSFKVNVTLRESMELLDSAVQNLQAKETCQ
Description: as §2, §3, §4

[14] = target: CYP3A4 (Homo sapiens, UniProt P08684); assay: Fluorometric CYP inhibition assay, BFC debenzylation; type: in vitro ADME
Description: as §2, §3, §4

[15] = target: T5, CYP2D6 (Homo sapiens, UniProt P10635); assay: in vitro; conditions: recombinant CYP2D6
Description: as §2, §3, §4

[16] = target: T5, CYP2D6; assay: biochemical
Description: as §2, §3, §4

[17] = test system: CYP1A1; parameters: method as in PMID 10188874; conditions: MCF-7 breast cancer cells; cited from earlier work
[18] = target: T2, CYP1A1; conditions: published value for known inhibitor; cited from earlier work
[19] = target: T4, CYP1B1; conditions: published value for known inhibitor; cited from earlier work
[20] = recombinant CYP1B1, ERes 0.37 μM, read-out: IC50 CYP1B1

T1 sequence (P33261 whole entry): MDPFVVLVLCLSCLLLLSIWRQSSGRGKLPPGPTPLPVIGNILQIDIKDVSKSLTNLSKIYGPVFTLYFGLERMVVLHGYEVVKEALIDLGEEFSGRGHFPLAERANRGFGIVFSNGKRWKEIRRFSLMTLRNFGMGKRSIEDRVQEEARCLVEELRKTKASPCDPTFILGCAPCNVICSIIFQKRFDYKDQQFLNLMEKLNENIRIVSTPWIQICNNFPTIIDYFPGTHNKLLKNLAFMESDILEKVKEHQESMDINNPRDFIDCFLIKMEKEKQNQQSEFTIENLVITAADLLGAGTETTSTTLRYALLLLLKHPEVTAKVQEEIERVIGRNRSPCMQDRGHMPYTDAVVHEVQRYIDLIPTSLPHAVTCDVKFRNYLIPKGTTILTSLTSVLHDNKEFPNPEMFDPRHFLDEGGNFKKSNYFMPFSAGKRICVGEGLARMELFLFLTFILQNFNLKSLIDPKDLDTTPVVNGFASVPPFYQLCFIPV
T5 sequence (P10635 whole entry): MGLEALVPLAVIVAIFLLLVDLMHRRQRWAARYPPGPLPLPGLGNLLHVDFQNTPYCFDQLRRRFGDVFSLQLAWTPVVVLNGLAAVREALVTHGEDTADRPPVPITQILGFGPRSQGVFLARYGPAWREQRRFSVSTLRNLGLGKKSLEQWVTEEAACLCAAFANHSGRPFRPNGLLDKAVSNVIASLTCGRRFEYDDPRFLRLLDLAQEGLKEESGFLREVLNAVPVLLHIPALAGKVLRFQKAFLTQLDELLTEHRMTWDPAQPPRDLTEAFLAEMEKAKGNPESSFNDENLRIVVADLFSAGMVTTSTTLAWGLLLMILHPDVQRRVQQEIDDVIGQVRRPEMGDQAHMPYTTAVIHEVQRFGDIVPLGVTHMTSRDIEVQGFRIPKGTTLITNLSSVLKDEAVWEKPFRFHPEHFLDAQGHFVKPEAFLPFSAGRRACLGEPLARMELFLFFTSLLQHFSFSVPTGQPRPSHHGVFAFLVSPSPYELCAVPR
Sequence of CYP3A4 (P08684 whole entry): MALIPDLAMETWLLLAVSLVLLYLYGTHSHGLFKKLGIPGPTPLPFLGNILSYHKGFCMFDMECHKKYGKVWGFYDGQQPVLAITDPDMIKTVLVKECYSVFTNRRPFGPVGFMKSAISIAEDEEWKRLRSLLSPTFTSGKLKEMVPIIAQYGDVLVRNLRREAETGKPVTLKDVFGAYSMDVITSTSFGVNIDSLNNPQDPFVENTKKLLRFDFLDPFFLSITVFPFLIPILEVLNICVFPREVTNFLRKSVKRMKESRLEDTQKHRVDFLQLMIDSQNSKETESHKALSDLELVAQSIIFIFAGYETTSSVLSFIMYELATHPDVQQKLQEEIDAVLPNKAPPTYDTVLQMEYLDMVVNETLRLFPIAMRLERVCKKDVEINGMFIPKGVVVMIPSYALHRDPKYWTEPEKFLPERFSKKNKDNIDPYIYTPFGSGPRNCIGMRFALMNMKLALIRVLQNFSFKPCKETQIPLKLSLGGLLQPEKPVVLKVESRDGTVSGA

Compound	IC50 [1] [nM]	IC50 [3] [nM]	IC50 [4] [nM]	IC50 cell viability HepG [8]	IC50 cell viability MCF-7 [10]	nature of inhibition of CYP1A1 activity [11]	Ki [11] [nM]	nature of inhibition of CYP1B1 activity [13]	Ki [13] [nM]	IC50 [11] [nM]	IC50 [13, 20] [nM]	other results
CCC1(c2ccccc2)C(=O)NC(=O)N(Cc2ccccc2)C1=O (single isomer, unassigned; (-)) [(−)-N-3-Benzyl-phenobarbital, reference compound]	300 ± 10	–	–	–	–	–	–	–	–	–	–	IC50 [2]: 250 nM
O=c1[nH]cc(F)c(=O)[nH]1 [Fluorouracil, fluorouracil, reference compound]	–	55500 ± 3710	23500 ± 1120	–	–	–	–	–	–	–	–	–
CC(C)(O)CCCC1(C)CC(=O)c2cc(O)c(Br)cc2O1 (centres unmarked) [PBQ1, 7-Hydroxycymopochromanone]	–	–	–	NI (no impact (<10% inhibition at 60 μM))	NI (no impact (<10% inhibition at 60 μM))	partial non competitive; also recorded: partial noncompetitive inhibition	3070 ± 690	uncompetitive inhibition	260 ± 30	–	–	viability at 24 h, 60 µM [5]: < 10%; IC50 cell viability CCD18 Co [3]: NI (no impact (<10% inhibition at 60 μM)); viability at 24 h, 60 µM [6]: < 10%; IC50 cell viability HT29 [4]: NI (no impact (<10% inhibition at 60 μM)); viability at 24 h, 60 µM [7]: < 10%; viability at 24 h, 60 µM [9]: < 10%; nature of inhibition of CYP1A2 activity ([12]; Eadie-Hofstee analysis, reversible): noncompetitive inhibition; Ki ([12]; apparent Ki, CEC dealkylation): 9160 ± 4680 nM; IC50 ([12]; human, probe 7-ethoxy-3-cyanocoumarin (CEC)): 9750 ± 36.5 nM; IC50 ([13]; human): 1420 ± 140 nM; IC50 ([14]; human, recombinant enzyme): 5070 ± 3540 nM; IC50 [15]: 1030 ± 400 nM
C/C(=C\C(=O)c1cc(O)c(Br)cc1O)CCCC(C)(C)O [PBQ2, 7-hydroxycymopolone]	120 ± 60	55600 ± 3280	19800 ± 460	NI (no impact (<10% inhibition at 60 μM))	NI (no impact (<10% inhibition at 60 μM))	uncompetitive inhibition	840 ± 70	partial noncompetitive inhibition	4.7	930 ± 260	140 ± 40	IC50 [12]: 10600 ± 6750 nM; IC50 ([14]; recombinant CYP3A4, BFC 50 μM, read-out: IC50 CYP3A4): 8310 ± 4670 nM; IC50 [16]: 2750 ± 960 nM
O=c1c(O)c(-c2ccccc2)oc2cc(O)cc(O)c12 [galangin]	–	–	–	–	–	–	–	–	–	–	–	nature of inhibition of DMBA-induced CYP1A1 [17]: noncompetitive, dose-dependent
CC(=O)N1CCN(c2ccc(OCC3COC(Cn4ccnc4)(c4ccc(Cl)cc4Cl)O3)cc2)CC1 (centres unmarked) [ketoconazole, reference compound]	–	–	–	–	–	–	–	–	–	40 ± 10	6300 ± 1700	IC50 [18]: < 10000 nM; IC50 [19]: < 10000 nM

— paper PMC3541164, “Cytotoxic and potent CYP1 inhibitors from the marine algae Cymopolia barbata” (Organic and Medicinal Chemistry Letters, 2012)
